US20150351394A1, “BACTERICIDAL COMPOSITION CONTAINING FLUAZINAM” (Shenzhen Noposion Agrochemicals Co., Ltd., priority 2014, published 2015)

Legend:
[1] = tested on: pepper phytophthora capsici; test: Indoor toxicity test on potted pepper seedlings inoculated with pepper phytophthora capsici (NY/T1156.11-2008); assay type: in vivo; details: single active compound, survey 8 days after inoculation
Protocol: The pepper phytophthora capsici is acted as test object.
Test methods: referring to the “Republic of China agricultural industry standard NY/T1156.11-2008”, selecting growing consensus potted pepper seedlings, selecting five pots per test object with respective number for use, spraying five milliliters for each pot by a Potter spray tower in a pressure of 50 PSI. The test results are shown in Tables 1 and 2 and each test pesticide is provided with five concentration gradients. After 24 hours, five millimeters pepper phytophthora capsici mycelium blocks are inoculated into the objects. Pepper seedlings with an equal amount of water spraying are selected as the blank control. After inoculation, pepper seedlings are shifted into light moisturizer cabinets for culture. After 8 days, in accordance with grading standards of incidence of pepper phytophthora blights, the disease indexes are surveyed and the control effects are calculated.
Capsici disease classification criteria:
0 level: no lesion on the leaves;
1 level: lesion area of the total leaf area is 5% or less;
3 level: lesion area of the total leaf area is from 6% to 10%;
5 level: lesion area of the total leaf area is from 11% to 25%;
7 level: lesion area of the total leaf area is from 25% to 50%;
9 level: lesion area of the total leaf area is 50% or more.
Disease index=[Σ(leaf quantity in each level×respective level number)×100]/(Total quantity of tested leaves×9).
Control effect (%)=[(blank disease index−treated disease index)]×100]/blank disease index.
Expected effect of a mixture of the active ingredients (i.e., control effect in theory, %) is determined by using Colby's formula and is compared with observed effect:
Colby formula: E=X+Y−X*Y/100
E: expected effect of the composition provided that active ingredient A thereof is in a concentration of a value, and active ingredient B is in a concentration of b value.
X: expected effect provided that usage dose of the active ingredient A is a value.
Y: expected effect provided that usage dose of the active ingredient B is b value.
It is testified that the mixture has a synergistic effect when the actual control effect observed exceeds the expected control effect.

[2] = tested on: pepper phytophthora blight; test: Field efficacy experiment against the pepper phytophthora blight (Haikou, Hainan); assay type: in vivo, phytophthora capsici; details: two foliar sprays 7 days apart, field peppers
Protocol: Test site is Haikou in Hainan. […] Four plots are treated per pesticide and replicates. Each plot has surface area of 20 square meters. The pesticides are applied in the early occurrence of disease and are uniformly sprayed onto the leaves until dripping for the first time. Clean water is used as the blank control. Seven days later, the pesticides are applied for the second time. Disease incidence of the pepper phytophthora blights to the peppers prior to the first pesticide application and that of after 15 days from the second pesticide application are surveyed. Each plot uses a five-point sampling means, surveying two per point, and recording the number of diseased plants, dead plants and apparent withered plants. Disease index and control effect are calculated for each treatment.
Classification method (according to symptom types):
0 level: health, no disease;
1 level: lesions happen only to overground leaves and fruitst;
3 level: brown rot spots happen to overground stems and branches;
5 level: brown rot spots happen to the stem base;
7 level: brown rot spots happen to overground stems, branches and stem base, and some dead branches;
9 level: entire plant dead.
Efficacy calculation method:
Disease index=[Σ(plant quantity in each level×respective level number)×100]/(Total quantity of tested plants×9). […]

| SMILES | Actual effect (control effect) ([1]; 1 ppm in spraying droplet) [%] | Actual effect (control effect) ([1]; 10 ppm in spraying droplet) [%] | Actual effect (control effect) ([1]; 30 ppm in spraying droplet) [%] | Actual effect (control effect) ([1]; 50 ppm in spraying droplet) [%] | Actual effect (control effect) ([1]; 100 ppm in spraying droplet) [%] | Control effects ([2]; 20 g a.i./ha) [%] | Actual effect (control effect) ([1]; 20 ppm in spraying droplet) [%] | Control effects ([2]; 250 g a.i./ha) [%] |
| --- | --- | --- | --- | --- | --- | --- | --- | --- |
| C=CCc1ccc(O)c(OC)c1 [Eugenol, 4-allyl-2-methoxy-phenol] | 6.2 | 17.6 | 46.3 | 63.8 | 79.5 | 71.6 |  |  |
| O=[N+]([O-])c1cc(C(F)(F)F)c(Cl)c([N+](=O)[O-])c1Nc1ncc(C(F)(F)F)cc1Cl [Fluazinam, 3-chloro-N-(3-chloro-5-trifluoromethyl-2-pyridyl)-α,α,α-trifluor-2,6-dinitro-p-toluidine] | 11.4 | 31.2 |  | 71.4 | 87.1 |  | 52.9 | 78.7 |
